Data published in ChEMBL document CHEMBL1201862, “PubChem BioAssay data set” (2004).
“And” between values parts separate entries of the source, which are not always exact repeats. Equal values may be shown once. The source made the active and inactive calls.

How the values were obtained:
Mu-type opioid receptor = Mu-type opioid receptor (Homo sapiens, UniProt P35372); format: functional, cell-based;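 further: U2OS cells with beta-arrestin recruitment to OPRM1 by beta-gal complementation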
[1] = target: 5-hydroxytryptamine receptor 2A (Mus musculus, UniProt P35363); format: functional, cell-based;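 further: CHO-K1 cells with tagged receptor and beta-arrestin; agonist potency measured as compound-induced activation of the receptor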
[2] = inhibitors of CMV-promoter luciferase reporter, dose response, counter-screen for Pax8 inhibitor project, cell-based, HEK293, luminescence, dry powder (AID 743020); format: functional
Paired box protein Pax-8 = Paired box protein Pax-8 (Homo sapiens, UniProt Q06710); experiment: inhibitors of PAX8-driven TPO luciferase reporter, dose response, RMG-I cells, cherry-pick (AID 687027); format: functional, cell-based;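 further: luciferase reporter driven by Pax8 target thyroperoxidase promoter measured by SteadyGlo luminescence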
[3] = HepG2 cell cytotoxicity, dose response, cytotoxicity control, cherry-picks, set 5 (AID 1053118); format: functional, cell-based
[4] = target: T1, Beta-2 adrenergic receptor (Homo sapiens, UniProt P07550); experiment: beta2AR agonists driving receptor internalization, dose response, cell-based, FAP fluorogen, flow cytometry, cherry pick 1 (AID 588763); format: functional
[5] = target: T1, Beta-2 adrenergic receptor; experiment: Dose response for HTS for Beta-2AR agonists via FAP method from Powderset1.; format: functional
[6] = target: Tyrosine-protein phosphatase non-receptor type 5 (Homo sapiens, UniProt P54829); experiment: STEP phosphatase inhibitors, confirmation, biochemical, fluorescence intensity, uHTS hits (AID 602372); format: functional; details: read-out: IC50_Mean
[7] = target: Dual specificity protein phosphatase 3 (Homo sapiens, UniProt P51452); experiment: VHR phosphatase inhibition, dose response, selectivity assay for STEP inhibitor project, biochemical (AID 602374); format: functional; details: read-out: IC50_Mean
[8] = target: T2, Tyrosine-protein phosphatase non-receptor type 22 (Homo sapiens, UniProt Q9Y2R2); experiment: PTPN22 phosphatase inhibition, dose response, selectivity assay for STEP inhibitor project, biochemical (AID 624241); format: functional
T2 sequence (Q9Y2R2 whole entry): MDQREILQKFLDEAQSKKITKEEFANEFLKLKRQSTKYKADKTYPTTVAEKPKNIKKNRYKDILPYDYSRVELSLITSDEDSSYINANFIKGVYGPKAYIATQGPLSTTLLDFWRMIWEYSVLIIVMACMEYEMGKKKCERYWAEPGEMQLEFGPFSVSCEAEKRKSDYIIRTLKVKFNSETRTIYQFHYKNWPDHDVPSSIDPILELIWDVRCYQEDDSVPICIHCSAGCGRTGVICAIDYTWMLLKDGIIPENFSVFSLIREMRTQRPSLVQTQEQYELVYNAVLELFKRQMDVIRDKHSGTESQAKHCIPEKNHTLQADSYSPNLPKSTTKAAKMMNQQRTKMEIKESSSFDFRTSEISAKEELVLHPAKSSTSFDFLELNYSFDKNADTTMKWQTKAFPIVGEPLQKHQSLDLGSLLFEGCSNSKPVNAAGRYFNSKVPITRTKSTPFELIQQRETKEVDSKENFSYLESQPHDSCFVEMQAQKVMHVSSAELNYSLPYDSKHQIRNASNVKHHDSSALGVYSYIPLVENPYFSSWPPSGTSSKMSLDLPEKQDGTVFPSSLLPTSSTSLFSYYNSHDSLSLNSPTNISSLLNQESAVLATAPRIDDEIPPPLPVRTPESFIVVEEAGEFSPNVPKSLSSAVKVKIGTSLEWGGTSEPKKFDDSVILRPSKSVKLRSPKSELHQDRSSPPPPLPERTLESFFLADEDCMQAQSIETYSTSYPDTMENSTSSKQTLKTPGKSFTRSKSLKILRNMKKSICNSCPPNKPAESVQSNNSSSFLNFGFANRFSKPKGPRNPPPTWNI

[9] = target: Tyrosine-protein phosphatase non-receptor type 11 (Homo sapiens, UniProt Q06124); experiment: SHP2 phosphatase inhibition, dose response, selectivity assay for STEP inhibitor project, biochemical (AID 602367); format: functional; details: read-out: IC50_Mean
[10] = HEK293T cytotoxicity, dose response, cytotoxicity control for miR-122 modulator project, cell-based, inhibitor set, cherry-pick, set 2 (AID 720697); format: functional
Galanin receptor type 3 = Galanin receptor type 3 (Homo sapiens, UniProt O60755); experiment: Fluorescence-based cell-based primary high throughput dose response assay to identify antagonists of the Galanin Receptor 3 (GalR3).; format: functional
cells = format: functional, cell-based; details: HEK-CNG
[11] = target: Broad substrate specificity ATP-binding cassette transporter ABCG2 (Homo sapiens, UniProt Q9UNQ0); experiment: ABCG2 efflux pump inhibitors, dose response, Ig-MXP3 cells, flow cytometry (AID 1690); format: functional
[12] = target: T3, Polyadenylate-binding protein 1 (Homo sapiens, UniProt P11940); experiment: PABP1 MLLE–PAM2 interaction inhibitors, dose response, miRNA deadenylation inhibitor project, biochemical, fluorescence polarization, Cy5-PAM2 peptide, secondary (AID 602260); format: functional; details: read-out: IC50_Mean
[13] = target: Long-chain-fatty-acid--AMP ligase FadD28 (Mycobacterium tuberculosis, UniProt P9WQ59); experiment: Fluorescence polarization aasay to screen for inhibitors that compete for the binding of FadD28 to a bisubstrate Measured in Biochemical System Using Plate Reader - 2147-01_Inhibitor_Dose_CherryPick_Activity.; format: functional, Mycobacterium tuberculosis H37Rv
[14] = target: T3, Polyadenylate-binding protein 1; experiment: PABP1 MLLE–PAM2 binding inhibitor potency, dose response, biochemical, fluorescence polarization, FITC-PAM2 peptide (AID 602259); format: functional; details: read-out: IC50_Mean
[15] = target: Botulinum neurotoxin type F (Clostridium botulinum, UniProt P30996); experiment: High-throughput multiplex microsphere dose response for inhibitors of toxin protease, specifically Botulinum neurotoxin light chain F protease, compounds from Cherry Pick 02.; format: functional; details: read-out: EC50_MICROM
Botulinum neurotoxin type F, sequence (P30996 1-436 limits assumed): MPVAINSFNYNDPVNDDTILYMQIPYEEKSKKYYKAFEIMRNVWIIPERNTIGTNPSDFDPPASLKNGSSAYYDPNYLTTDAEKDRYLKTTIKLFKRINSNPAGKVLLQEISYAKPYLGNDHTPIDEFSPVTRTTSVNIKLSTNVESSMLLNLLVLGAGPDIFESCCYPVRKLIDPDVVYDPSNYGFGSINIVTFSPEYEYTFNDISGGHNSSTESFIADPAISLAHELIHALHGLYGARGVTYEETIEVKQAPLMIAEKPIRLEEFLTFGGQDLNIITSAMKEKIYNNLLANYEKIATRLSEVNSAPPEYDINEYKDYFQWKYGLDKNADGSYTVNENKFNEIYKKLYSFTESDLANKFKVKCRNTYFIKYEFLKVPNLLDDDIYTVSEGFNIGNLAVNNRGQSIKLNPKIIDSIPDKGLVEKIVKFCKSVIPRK

T1 sequence (P07550 whole entry): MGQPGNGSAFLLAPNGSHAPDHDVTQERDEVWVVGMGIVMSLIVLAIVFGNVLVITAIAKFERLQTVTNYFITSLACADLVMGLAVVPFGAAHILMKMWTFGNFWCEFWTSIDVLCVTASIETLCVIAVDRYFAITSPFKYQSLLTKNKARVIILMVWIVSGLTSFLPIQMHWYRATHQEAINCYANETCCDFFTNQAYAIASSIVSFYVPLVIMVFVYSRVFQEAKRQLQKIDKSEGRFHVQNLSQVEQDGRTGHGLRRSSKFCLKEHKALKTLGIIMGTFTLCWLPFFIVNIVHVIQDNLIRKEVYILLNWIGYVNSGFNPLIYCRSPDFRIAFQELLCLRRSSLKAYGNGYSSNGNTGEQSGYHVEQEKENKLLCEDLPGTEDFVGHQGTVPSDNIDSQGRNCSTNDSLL
T3 sequence (P11940 whole entry): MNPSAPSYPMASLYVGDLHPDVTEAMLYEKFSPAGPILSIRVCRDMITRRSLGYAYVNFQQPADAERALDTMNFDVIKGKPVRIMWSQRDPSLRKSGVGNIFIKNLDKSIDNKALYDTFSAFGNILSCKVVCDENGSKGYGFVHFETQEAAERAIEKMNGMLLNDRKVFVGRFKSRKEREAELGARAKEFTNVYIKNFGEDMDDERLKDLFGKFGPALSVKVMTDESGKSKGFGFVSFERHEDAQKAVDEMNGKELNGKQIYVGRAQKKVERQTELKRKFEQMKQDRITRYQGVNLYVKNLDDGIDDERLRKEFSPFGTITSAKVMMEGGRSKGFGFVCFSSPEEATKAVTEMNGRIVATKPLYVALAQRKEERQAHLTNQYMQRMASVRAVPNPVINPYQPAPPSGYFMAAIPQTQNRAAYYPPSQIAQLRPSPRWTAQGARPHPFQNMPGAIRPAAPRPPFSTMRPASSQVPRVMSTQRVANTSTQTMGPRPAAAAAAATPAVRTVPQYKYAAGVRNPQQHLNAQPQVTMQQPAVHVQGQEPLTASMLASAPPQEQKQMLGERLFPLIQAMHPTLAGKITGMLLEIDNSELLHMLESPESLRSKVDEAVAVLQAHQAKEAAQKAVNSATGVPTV
Paired box protein Pax-8, sequence (Q06710 whole entry): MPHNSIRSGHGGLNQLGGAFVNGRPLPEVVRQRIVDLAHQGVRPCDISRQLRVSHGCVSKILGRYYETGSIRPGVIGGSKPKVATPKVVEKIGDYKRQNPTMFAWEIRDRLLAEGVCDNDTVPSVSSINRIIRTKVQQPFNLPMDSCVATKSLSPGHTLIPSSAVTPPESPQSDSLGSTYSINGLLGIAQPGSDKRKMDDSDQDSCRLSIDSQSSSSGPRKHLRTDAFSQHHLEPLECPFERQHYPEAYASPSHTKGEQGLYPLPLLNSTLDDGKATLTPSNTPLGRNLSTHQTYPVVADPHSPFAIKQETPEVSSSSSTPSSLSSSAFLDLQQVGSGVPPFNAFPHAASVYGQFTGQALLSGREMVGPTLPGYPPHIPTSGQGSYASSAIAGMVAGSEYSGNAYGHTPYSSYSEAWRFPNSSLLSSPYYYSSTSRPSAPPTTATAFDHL
Dual specificity protein phosphatase 3, sequence (P51452 whole entry): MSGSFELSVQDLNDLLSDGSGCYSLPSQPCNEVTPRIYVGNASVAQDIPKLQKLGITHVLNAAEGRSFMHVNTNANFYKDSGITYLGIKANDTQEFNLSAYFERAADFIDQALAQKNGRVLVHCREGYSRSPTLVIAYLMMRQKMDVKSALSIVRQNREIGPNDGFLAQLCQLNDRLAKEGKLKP
Broad substrate specificity ATP-binding cassette transporter ABCG2, sequence (Q9UNQ0 whole entry): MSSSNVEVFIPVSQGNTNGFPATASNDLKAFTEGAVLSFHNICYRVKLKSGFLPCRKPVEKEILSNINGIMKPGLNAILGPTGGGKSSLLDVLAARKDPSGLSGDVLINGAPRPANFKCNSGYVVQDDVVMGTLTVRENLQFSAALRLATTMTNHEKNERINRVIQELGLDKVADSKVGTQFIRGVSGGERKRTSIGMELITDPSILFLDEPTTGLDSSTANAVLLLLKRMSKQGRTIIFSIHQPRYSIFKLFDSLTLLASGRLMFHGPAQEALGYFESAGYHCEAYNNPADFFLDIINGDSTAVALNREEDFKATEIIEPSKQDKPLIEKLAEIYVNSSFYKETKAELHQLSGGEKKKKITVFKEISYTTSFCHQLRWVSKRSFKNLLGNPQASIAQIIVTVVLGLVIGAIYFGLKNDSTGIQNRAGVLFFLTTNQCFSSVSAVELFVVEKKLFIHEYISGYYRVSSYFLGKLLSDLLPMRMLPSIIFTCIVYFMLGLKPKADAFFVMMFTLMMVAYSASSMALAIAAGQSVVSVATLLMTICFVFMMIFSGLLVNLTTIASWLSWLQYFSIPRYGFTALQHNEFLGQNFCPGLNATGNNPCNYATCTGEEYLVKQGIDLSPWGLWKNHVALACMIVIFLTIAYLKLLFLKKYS
Galanin receptor type 3, sequence (O60755 whole entry): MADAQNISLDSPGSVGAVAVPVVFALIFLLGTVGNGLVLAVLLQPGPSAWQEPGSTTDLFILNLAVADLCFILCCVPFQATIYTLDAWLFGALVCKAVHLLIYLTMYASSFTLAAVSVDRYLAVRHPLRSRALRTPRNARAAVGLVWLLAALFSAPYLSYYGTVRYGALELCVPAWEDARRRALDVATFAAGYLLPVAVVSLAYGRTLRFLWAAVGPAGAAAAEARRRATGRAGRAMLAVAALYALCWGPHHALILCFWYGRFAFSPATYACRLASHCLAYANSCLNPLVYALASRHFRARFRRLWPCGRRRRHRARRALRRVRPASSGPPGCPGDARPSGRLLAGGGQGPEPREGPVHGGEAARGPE
5-hydroxytryptamine receptor 2A, sequence (P35363 whole entry): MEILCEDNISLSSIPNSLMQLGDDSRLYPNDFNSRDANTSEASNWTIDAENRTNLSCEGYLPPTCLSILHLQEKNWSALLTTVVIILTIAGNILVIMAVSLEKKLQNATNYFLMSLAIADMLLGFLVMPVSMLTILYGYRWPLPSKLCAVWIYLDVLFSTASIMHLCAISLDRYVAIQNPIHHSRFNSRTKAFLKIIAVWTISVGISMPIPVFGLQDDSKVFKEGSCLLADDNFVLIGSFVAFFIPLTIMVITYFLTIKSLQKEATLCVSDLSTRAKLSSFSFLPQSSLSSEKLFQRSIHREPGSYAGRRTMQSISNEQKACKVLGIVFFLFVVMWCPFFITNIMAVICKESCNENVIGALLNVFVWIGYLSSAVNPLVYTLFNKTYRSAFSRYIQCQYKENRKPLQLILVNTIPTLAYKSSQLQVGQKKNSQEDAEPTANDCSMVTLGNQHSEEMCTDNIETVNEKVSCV
Long-chain-fatty-acid--AMP ligase FadD28, sequence (P9WQ59 whole entry): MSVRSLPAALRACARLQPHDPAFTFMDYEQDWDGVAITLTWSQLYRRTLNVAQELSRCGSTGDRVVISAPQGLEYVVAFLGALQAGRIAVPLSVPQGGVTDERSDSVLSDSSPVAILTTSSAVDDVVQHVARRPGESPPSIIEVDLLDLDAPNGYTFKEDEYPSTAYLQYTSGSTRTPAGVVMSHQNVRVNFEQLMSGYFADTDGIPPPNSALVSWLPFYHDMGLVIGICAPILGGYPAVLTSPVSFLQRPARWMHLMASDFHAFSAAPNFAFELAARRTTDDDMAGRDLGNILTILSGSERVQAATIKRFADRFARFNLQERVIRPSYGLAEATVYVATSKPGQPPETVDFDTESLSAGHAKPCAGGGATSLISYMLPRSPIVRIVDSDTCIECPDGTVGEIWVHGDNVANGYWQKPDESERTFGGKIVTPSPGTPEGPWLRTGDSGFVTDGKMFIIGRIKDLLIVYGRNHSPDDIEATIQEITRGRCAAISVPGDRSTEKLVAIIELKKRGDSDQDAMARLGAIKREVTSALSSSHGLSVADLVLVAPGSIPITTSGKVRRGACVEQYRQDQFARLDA
Tyrosine-protein phosphatase non-receptor type 11, sequence (Q06124 whole entry): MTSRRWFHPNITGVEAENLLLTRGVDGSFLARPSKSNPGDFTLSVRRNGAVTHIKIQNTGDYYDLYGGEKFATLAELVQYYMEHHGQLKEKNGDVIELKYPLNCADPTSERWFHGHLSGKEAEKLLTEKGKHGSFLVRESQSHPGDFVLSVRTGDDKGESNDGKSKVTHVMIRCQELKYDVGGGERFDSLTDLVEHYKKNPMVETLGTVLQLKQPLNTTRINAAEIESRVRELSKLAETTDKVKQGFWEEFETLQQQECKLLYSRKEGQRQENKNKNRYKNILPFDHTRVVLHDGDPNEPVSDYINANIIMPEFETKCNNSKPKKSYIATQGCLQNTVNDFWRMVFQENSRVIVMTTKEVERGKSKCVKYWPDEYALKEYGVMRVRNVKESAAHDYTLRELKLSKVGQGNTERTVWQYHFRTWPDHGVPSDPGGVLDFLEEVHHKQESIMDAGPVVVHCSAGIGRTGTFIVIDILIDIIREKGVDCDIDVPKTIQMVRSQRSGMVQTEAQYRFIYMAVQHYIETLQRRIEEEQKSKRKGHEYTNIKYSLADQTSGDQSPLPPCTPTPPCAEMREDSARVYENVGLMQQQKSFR

## Clc1ccc(CN2CCN(c3ncccn3)CC2)cc1Cl
Mu-type opioid receptor
  EC50: 92.5 µM (inactive)
[1]
  EC50: 0.424 µM (active)

## Cc1ccc(S(=O)(=O)CCC(=O)c2ccc(F)cc2)cc1
[2]
  AC50: 27.9 µM (active)
Paired box protein Pax-8
  AC50: 11.3 µM (active)

## Cc1ccc(N(CC(=O)NCc2ccco2)S(=O)(=O)c2ccccc2)cc1
[3]
  AC50: > 52 µM (inactive)

## Cc1ccc(S(=O)(=O)N(C)CC(=O)N2CCN(c3ccccn3)CC2)cc1
[4]
  EC50: 167 nM (active) and 60.7 nM (active)
[5]
  EC50: 0.002 µM (active)

## Cc1c(C)c2ccc(OCC(=O)Nc3ccc(S(N)(=O)=O)cc3)c(C)c2oc1=O
[6]
  IC50: 22.9 µM (inactive)
[7]
  IC50: 10.8 µM (active)
[8]
  IC50: 44.9 µM (inactive)
[9]
  IC50: 6.82 µM (active)

## Cc1nc(O)c(C#N)cc1-c1ccccc1
[10]
  AC50: 2.43 µM (active)
Galanin receptor type 3
  IC50: 5.68 µM (active)
cells
  EC50: > 29.9 µM (inactive)

## O=[N+]([O-])c1ccc(Nc2nc(Cl)nc(NCCO)n2)cc1
[11]
  EC50: 4.63 µM (active)

## COc1ccc(NC(=O)CSc2ccc([N+](=O)[O-])cc2)cc1S(=O)(=O)N1CCOCC1
[12]
  IC50: > 66 µM (inactive)
[13]
  AC50: 24.7 µM (active)
[14]
  IC50: > 66 µM (inactive)

## CN(CC(=O)NC1CCN(Cc2ccccc2)CC1)S(=O)(=O)c1ccc(Cl)cc1
[15]
  EC50: > 20 µM (inactive)
